The values below come from ChEMBL document CHEMBL4393653, “Applications of Deuterium in Medicinal Chemistry” (J Med Chem, 2019).

The term Cmax denotes the maximum level reached in the sampled fluid or tissue. As usually defined, the half-life is the time needed for the level to fall by half in the phase considered. The low end stands for fast loss, the high end for slow loss.

The nature of data set [1]: Cmax in rat at 10 mg/kg, po. Format: ADME, organism-based. Further details: dose 10 mg/kg, route oral. The settings on record: in vivo.
The nature of data set [2]: Half life in rat at 10 mg/kg, po. It is filed as ADME, organism-based. The settings on record: in vivo.
A short description of data set [3]: Half life in human liver microsomes. It is filed as ADME, Microsome. Background: Liver microsomes are a subcellular fraction often used to study metabolism.

For the compound `[2H]c1c([2H])c([2H])c(C2=C(c3ccc(S(C)(=O)=O)cc3)COC2=O)c([2H])c1[2H]`, the Cmax in data set [1] stood at 4180 ng/mL. For the same compound, the half-life in data set [2] was 4.29 h.

As to `[2H]C([2H])([2H])c1nnc(C(C)C)n1[C@@H]1C[C@H]2CC[C@@H](C1)N2CC[C@H](NC(=O)C1CCC(F)(F)CC1)c1ccccc1`, the half-life in data set [3] turned out to be 0.758 h.

As for `[2H]C([2H])([2H])c1nnc(C(C)C)n1[C@@H]1C[C@H]2CC[C@@H](C1)N2C([2H])([2H])C[C@H](NC(=O)C1CCC(F)(F)CC1)c1ccccc1`, in data set [3], the half-life was 2.42 h.

In data set [3], `Cc1nnc(C(C)C)n1[C@@H]1C[C@H]2CC[C@@H](C1)N2CC[C@H](NC(=O)C1CCC(F)(F)CC1)c1ccccc1` [MARAVIROC] yielded a half-life of 1.62 h.

The compound `CS(=O)(=O)c1ccc(C2=C(c3ccccc3)C(=O)OC2)cc1` [ROFECOXIB] came in with a Cmax in data set [1] of 2420 ng/mL. The compound also showed a half-life in data set [2] of 4.18 h.
